Measurements from PMC12519992 (2025).

Legend:
[1] = test system: BCL2 (DNA, G4) GGGCGCGGGAGGAATTGGGCGGG; experiment: fluorescence titration of ligand, Hill fit; conditions: K+; 100 mM Tris-KCl, pH 7.4, 25 °C; excitation 300 nm
[2] = test system: dsDNA (dual-labeled) (DNA, duplex) CAATCGGATCGAATTCGATCCGATTG; experiment: FRET melting; conditions: K+ 60 mM; 60 mM K-cacodylate (table note: Tris-HCl/KCl), pH 7.4; 1 µM compound
[3] = test system: c-KIT1 (DNA, G4) GGGAGGGCGCTGGGAGGGAGGG; experiment: ITC; conditions: K+ 100 mM; 100 mM Tris, 100 mM KCl, pH 7.4; main text prints ~3.3 µM
[4] = test system: c-MYC27 (DNA, G4) TGAGGGTGGGTAGGGTGGGTAA; experiment: ITC; conditions: K+ 100 mM; 100 mM Tris, 100 mM KCl, pH 7.4; 5 µM DNA, 50 µM ligand
[5] = test system: c-MYC27 (DNA, G4) TGAGGGTGGGTAGGGTGGGTAA; experiment: fluorescence titration of ligand, Hill fit; conditions: K+; 100 mM Tris-KCl, pH 7.4, 25 °C; excitation 300 nm
[6] = test system: KRAS (DNA, G4) AGGGCGGTGTGGGAAGAGGGAAGAGGGGGAGG; experiment: ITC; conditions: K+ 100 mM; 100 mM Tris, 100 mM KCl, pH 7.4; 5 µM DNA, 50 µM ligand
[7] = test system: KRAS (DNA, G4) AGGGCGGTGTGGGAAGAGGGAAGAGGGGGAGG; experiment: fluorescence titration of ligand, Hill fit; conditions: K+; 100 mM Tris-KCl, pH 7.4, 25 °C; excitation 300 nm
[8] = test system: c-KIT1 (DNA, G4) GGGAGGGCGCTGGGAGGGAGGG; experiment: fluorescence titration of ligand, Hill fit; conditions: K+; 100 mM Tris-KCl, pH 7.4, 25 °C; excitation 300 nm
[9] = test system: BCL2 (DNA, G4) GGGCGCGGGAGGAATTGGGCGGG; experiment: ITC; conditions: K+ 100 mM; 100 mM Tris, 100 mM KCl, pH 7.4; 5 µM DNA, 50 µM ligand
[10] = test system: c-KIT2 (DNA, G4) GGGCGGGCGCGAGGGAGGGG; experiment: fluorescence titration of ligand, Hill fit; conditions: K+; 100 mM Tris-KCl, pH 7.4, 25 °C; excitation 300 nm
[11] = test system: c-KIT2 (DNA, G4) GGGCGGGCGCGAGGGAGGGG; experiment: ITC; conditions: K+ 100 mM; 100 mM Tris, 100 mM KCl, pH 7.4; main text prints ~2.6 µM
[12] = test system: VEGF (DNA, G4) CGGGGCGGGCCGGGGGCGGGGT; experiment: ITC; conditions: K+ 100 mM; 100 mM Tris, 100 mM KCl, pH 7.4; 5 µM DNA, 50 µM ligand
[13] = test system: dsDNA (DNA, duplex) CAATCGGATCGAATTCGATCCGATTG; experiment: fluorescence titration of ligand, Hill fit; conditions: K+; 100 mM Tris-KCl, pH 7.4, 25 °C; main text: no substantial spectral change with dsDNA, ITC negligible

Nc1nc(C(=O)Nc2ccc(-n3cc(CNC(=O)c4csc(NC(=O)c5csc(N)n5)n4)nn3)cc2)cs1
Kd [1]: 1800 nM

C[n+]1cc(NC(=O)c2ccc3ccc4ccc(C(=O)Nc5cc6ccccc6[n+](C)c5)nc4c3n2)cc2ccccc21
ΔTm [2]: 0.01 °C

Nc1nc(C(=O)Nc2nc(C(=O)NCc3cn(-c4ccc(NC(=O)[C@@H]5CCCN5)cc4)nn3)cs2)cs1
KD [3]: 2200 ± 1000 nM | KD [4]: 2280 ± 740 nM | KD [5]: 2500 nM | KD [1]: 1500 nM | ΔTm [2]: 0.07 °C | KD [6]: 530 ± 250 nM | Kd [7]: 800 nM | KD [8]: 2000 nM | KD [9]: 3000 ± 100 nM | KD [10]: 1500 nM | KD [11]: 3700 ± 300 nM | KD [12]: 17700 ± 4000 nM | KD [13]: 2200 nM
